Reference: ChEMBL document CHEMBL1201862, “PubChem BioAssay data set” (2004)
Calls of active or inactive are those of the source.

Tests used:
[1] = molecular target: G-protein coupled receptor 35 (Homo sapiens, UniProt Q9HC97); assay: SAR Analysis for the identification of Selective Antagonists of ERK1/2 Activity in GPR35-Overexpressing U2OS Cells. [Related pubchem assays: 2079, 2058 ]; format: functional, cell-based
[2] = test system: Streptococcus sp. 'group A'; assay: Streptococcus pyogenes SK(-)GAS viability under kanamycin – luminescence, BacTiterGlo, confirmation, counter-screen for streptokinase expression inhibitor project, dose response (AID 1900); format: functional, organism-based
[3] = CCR5-tropic HIV-1 fusion blockers – cell-based, CCR5-tropic Env, dose response (AID 2279); format: functional
Streptococcus = assay: GAS UMAA2166 growth inhibition – luminescence, BacTiterGlo, counter-screen for streptokinase expression inhibitor project, dose response (AID 1915); format: functional, organism-based;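 note: potency for reduction of bacterial viability or growth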
[4] = molecular target: Tyrosine-protein phosphatase non-receptor type 12 (Homo sapiens, UniProt Q05209); assay: SAR Selectivity Analysis of small molecule inhibitors of PEST using pCAP in a fluorescence assay. [Related pubchem assays (depositor defined):AID1779, AID1784, AID2135]; format: functional
[5] = molecular target: T1, Tyrosine-protein phosphatase non-receptor type 22 (Homo sapiens, UniProt Q9Y2R2); assay: SAR LYP1 Fluorescent Assay using OMFP substrate for In Vitro dose response studies - Set 3. [Related pubchem assays (depositor defined):AID1779, AID1784, AID2140, AID2686]; format: functional
[6] = molecular target: Tyrosine-protein phosphatase non-receptor type 7 (Homo sapiens, UniProt P35236); assay: inhibition of hematopoietic tyrosine phosphatase HePTP – biochemical, set 2, SAR follow-up (AID 449736); format: functional
[7] = molecular target: T1, Tyrosine-protein phosphatase non-receptor type 22; assay: inhibition of lymphoid tyrosine phosphatase LYP – biochemical, pCAP fluorogenic substrate, fluorescence, set 3, SAR follow-up (AID 449727); format: functional
[8] = molecular target: G-protein coupled receptor 55 (Homo sapiens, UniProt Q9Y2T6); assay: blockers of GPR55 signalling, imaged – imaging, image-based, counter-screen for GPR35 antagonist project, SAR follow-up (AID 2397); format: functional
Cysteine protease ATG4B = molecular target: T2, Cysteine protease ATG4B (Homo sapiens, UniProt Q9Y4P1); format: functional;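 note: Fluorescence-based dose-response confirmation assay measuring inhibition of ATG4B activity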
T2 sequence (Q9Y4P1 whole entry): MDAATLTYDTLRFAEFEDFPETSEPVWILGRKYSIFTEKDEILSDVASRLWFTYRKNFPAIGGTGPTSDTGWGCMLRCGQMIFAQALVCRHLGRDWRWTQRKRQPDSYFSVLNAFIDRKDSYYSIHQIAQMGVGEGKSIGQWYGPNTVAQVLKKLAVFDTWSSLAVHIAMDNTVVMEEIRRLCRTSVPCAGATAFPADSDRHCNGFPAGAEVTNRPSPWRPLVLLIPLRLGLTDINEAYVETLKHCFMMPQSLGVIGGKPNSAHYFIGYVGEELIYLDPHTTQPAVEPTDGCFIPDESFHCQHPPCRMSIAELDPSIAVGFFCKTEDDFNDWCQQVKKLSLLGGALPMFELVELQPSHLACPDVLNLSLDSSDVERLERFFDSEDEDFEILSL

Phospholipase A2 = Phospholipase A2 (Homo sapiens, UniProt P04054); format: functional;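 note: confirmatory dose-response counterscreen on phospholipase A2, testing hits that came from an ultra-high-throughput screen for ATG4B inhibitors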
[9] = luciferase reporter signal suppression in cells – H4 neuroglioma cells, luminescence, dose response (AID 1990); format: functional, cell-based
BJ [10] = assay: BJ-TERT fibroblast viability loss – cell-based, RAS-independent, luminescence, dose response (AID 1933); format: functional; conditions: Homo sapiens
cells [11] = format: functional, cell-based
[12] = Luminescence Cell-Based Dose Response HTS to Identify Inhibitors of 5'UTR Stem-Loop Driven Prion Protein mRNA Translation in H4 Neuroglioblastoma Cells. [Related pubchem assays: 1827 (Project Summary), 1813 (Primary HTS)]; format: functional
[13] = alpha-synuclein stem-loop luciferase translation blockers – H4 neuroglioma cells, luminescence, confirmation (AID 1988); format: functional, cell-based
Streptokinase A = molecular target: T3, Streptokinase A (Streptococcus pyogenes serotype M1, UniProt P10520); assay: viability-normalized secreted streptokinase activity reduction – plasminogen activation absorbance, OD405, dose response (AID 1914); format: functional, Streptococcus pyogenes M1 GAS;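 note: secreted streptokinase activity via plasminogen activation per viability signal from cell pellet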
T3 sequence (P10520 whole entry): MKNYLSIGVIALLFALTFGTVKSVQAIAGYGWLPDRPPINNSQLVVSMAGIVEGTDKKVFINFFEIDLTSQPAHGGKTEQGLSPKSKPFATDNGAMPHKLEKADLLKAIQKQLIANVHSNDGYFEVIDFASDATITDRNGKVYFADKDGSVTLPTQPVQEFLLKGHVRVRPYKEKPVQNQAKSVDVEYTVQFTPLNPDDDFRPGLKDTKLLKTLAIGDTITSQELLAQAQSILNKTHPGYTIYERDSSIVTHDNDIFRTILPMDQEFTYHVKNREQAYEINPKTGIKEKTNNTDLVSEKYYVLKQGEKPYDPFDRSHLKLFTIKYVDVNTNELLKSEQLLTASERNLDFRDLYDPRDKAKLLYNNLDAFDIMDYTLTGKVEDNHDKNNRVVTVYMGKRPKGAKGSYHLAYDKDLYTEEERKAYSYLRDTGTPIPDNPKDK

BJ [14] = assay: cells; format: functional, cell-based; conditions: Homo sapiens
cells [15] = format: functional, cell-based; remark: listed apart in the source
BJ [16] = assay: BJ-TERT-LT-ST fibroblast viability loss – cell-based, RAS-independent, luminescence, dose response (AID 1935); format: functional; conditions: Homo sapiens;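 note: BJ fibroblasts immortalized with TERT plus LT and ST oncogenes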
[17] = DRD fibroblast viability loss – cell-based, non-viral oncogenic, luminescence, dose response (AID 1934); format: functional; conditions: Homo sapiens
Exodeoxyribonuclease V = Exodeoxyribonuclease V (Escherichia coli (strain K12), UniProt P04993+P07648+P08394); assay: RecBCD inhibition via phage-restricted bacterial growth – absorbance, V66 E. coli, mutant T4 phage, counter-screen for AddAB inhibitor project, dose response (AID 492957); format: functional, cell-based, Escherichia coli str. K-12 substr. MG1655
Nonstructural protein 1 = Nonstructural protein 1 (Influenza A virus, UniProt Q194T2); format: functional, Influenza A virus (A/California/07/2009(H1N1))
[18] = Counterscreen for AddAB inhibitors: absorbance-based bacterial cell-based high throughput dose response assay for inhibitors of bacterial viability. [Related pubchem assays (depositor defined):AID435030, AID449728, AID449731, AID488942, AID488955, AID488956]; format: functional
[19] = molecular target: T4, Replicative DNA helicase DnaB (Mycobacterium tuberculosis, UniProt P9WMR3); assay: DnaB intein splicing inhibitors, dose response, biochemical, cell-free fluorescence (AID 449749); format: functional
T4 sequence (P9WMR3 whole entry): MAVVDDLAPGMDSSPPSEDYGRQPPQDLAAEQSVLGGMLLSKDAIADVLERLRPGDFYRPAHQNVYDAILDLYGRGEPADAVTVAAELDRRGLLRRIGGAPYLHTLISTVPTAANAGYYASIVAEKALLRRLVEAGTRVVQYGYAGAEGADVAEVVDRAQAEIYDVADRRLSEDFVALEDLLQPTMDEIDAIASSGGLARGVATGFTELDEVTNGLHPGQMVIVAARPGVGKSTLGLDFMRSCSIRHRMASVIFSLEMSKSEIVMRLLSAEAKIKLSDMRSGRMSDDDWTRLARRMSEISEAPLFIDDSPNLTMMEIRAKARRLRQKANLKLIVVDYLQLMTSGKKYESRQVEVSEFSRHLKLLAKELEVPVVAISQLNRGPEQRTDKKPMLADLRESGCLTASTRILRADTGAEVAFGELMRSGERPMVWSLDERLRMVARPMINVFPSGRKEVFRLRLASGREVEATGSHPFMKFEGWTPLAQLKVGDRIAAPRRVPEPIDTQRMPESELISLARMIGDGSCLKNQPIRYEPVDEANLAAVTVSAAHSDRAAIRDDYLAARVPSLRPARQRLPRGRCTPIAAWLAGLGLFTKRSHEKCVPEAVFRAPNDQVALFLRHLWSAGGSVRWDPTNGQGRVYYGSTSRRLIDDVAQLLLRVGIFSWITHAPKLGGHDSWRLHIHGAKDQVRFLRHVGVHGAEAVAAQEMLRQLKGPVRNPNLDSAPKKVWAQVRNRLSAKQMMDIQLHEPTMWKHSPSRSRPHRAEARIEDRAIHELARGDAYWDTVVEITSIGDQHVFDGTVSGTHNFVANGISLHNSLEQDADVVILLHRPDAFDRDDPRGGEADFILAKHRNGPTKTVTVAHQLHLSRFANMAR

[20] = molecular target: Heat shock protein HSP 90-alpha (Homo sapiens, UniProt P07900); format: functional, organism-based
BJ [21] = assay: growth inhibition of engineered Ras-driven BJ cells – cell-based, alamar blue fluorescence, cherrypicked samples, dose response (AID 2631); format: functional; conditions: Homo sapiens;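 note: confirmatory dose-response assay in RAS-dependent BJ fibroblasts engineered with TERT, LT and ST, with cytotoxicity read by fluorescence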
Protein RecA = molecular target: T5, Protein RecA (Mycobacterium tuberculosis, UniProt P9WHJ3); assay: Fluorescence Cell-Free Homogeneous Dose Retest to Identify Inhibitors of RecA-Intein Splicing Activity. [Related pubchem assays (depositor defined):AID2097, AID2223, AID489010, AID492950]; format: functional
T5 sequence (P9WHJ3 whole entry): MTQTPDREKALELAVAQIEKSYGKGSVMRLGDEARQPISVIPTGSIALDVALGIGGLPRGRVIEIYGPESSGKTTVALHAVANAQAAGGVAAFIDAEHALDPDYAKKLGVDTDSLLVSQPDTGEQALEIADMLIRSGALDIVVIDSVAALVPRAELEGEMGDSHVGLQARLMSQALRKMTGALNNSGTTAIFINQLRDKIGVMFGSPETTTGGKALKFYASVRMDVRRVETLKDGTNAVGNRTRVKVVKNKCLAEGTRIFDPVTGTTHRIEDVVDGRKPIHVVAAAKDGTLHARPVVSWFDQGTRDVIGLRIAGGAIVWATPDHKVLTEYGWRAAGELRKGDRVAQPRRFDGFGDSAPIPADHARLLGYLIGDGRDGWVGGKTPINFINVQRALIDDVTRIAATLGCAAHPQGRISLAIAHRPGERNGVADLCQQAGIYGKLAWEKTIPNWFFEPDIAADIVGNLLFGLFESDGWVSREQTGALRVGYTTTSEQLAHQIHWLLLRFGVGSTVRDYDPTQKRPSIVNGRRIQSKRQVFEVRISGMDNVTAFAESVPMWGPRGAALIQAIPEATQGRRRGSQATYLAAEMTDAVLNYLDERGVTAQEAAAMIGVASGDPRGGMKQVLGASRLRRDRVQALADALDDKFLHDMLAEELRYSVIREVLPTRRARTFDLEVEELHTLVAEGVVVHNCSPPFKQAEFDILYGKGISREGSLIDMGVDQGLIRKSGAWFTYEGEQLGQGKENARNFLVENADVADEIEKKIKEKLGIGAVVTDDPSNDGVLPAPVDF

INS1 = assay: INS-1E survival protection against cytokine death – cell-based, luminescence, retest, dose response (AID 449756); format: functional; conditions: Rattus norvegicus, INS1;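 note: cell death triggered by IL-1 beta plus TNF-alpha plus IFN-gamma mixture; protective hits raise ATP signal compared with cytokine alone wells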

T1 sequence (Q9Y2R2 whole entry): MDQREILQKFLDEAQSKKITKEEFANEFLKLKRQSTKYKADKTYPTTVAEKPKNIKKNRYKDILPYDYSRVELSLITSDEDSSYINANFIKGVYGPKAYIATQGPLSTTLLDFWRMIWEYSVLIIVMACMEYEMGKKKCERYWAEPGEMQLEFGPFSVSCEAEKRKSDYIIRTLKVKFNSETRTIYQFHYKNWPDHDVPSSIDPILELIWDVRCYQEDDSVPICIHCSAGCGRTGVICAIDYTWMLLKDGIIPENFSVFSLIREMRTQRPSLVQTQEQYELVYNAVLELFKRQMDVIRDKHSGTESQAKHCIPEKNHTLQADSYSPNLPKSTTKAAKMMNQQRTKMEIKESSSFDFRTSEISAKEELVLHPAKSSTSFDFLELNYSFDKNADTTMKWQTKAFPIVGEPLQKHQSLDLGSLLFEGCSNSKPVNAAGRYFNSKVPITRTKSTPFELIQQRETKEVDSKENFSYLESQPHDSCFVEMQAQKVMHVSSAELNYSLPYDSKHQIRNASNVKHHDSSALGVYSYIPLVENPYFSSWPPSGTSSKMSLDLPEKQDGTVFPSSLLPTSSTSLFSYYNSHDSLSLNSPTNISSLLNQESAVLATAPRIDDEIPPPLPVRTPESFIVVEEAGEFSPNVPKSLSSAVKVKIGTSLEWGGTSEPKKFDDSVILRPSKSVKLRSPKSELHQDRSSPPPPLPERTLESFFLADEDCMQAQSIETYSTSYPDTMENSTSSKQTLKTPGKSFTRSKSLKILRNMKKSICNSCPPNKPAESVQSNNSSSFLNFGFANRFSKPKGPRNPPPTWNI
Sequence of Tyrosine-protein phosphatase non-receptor type 7 (P35236 whole entry): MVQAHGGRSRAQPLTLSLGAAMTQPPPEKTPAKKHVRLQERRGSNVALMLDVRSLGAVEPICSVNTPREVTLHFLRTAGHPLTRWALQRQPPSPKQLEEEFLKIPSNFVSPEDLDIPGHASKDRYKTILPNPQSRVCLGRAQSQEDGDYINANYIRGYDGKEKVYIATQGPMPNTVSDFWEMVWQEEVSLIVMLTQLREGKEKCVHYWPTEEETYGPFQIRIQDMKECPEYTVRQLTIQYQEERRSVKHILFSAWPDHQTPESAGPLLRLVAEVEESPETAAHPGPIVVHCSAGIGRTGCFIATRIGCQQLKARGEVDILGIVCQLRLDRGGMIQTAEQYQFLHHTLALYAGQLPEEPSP
Sequence of Exodeoxyribonuclease V (P04993 whole entry): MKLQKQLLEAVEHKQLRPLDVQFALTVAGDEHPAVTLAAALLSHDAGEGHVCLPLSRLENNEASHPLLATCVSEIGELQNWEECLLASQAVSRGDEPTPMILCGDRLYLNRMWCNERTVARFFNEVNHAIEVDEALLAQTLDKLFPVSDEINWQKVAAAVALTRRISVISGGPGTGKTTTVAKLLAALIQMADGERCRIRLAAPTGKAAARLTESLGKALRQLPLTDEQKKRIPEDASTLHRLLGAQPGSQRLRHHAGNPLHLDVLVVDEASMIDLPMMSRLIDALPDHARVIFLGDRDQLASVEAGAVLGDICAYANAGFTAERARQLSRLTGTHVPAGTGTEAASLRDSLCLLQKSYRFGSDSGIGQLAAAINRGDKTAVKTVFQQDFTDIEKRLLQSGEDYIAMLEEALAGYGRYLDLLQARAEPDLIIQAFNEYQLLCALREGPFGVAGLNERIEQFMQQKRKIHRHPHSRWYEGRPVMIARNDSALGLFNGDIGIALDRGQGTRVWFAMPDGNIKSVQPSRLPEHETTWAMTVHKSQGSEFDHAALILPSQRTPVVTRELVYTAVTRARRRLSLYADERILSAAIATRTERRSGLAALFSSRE
Sequence of Exodeoxyribonuclease V (P07648 whole entry): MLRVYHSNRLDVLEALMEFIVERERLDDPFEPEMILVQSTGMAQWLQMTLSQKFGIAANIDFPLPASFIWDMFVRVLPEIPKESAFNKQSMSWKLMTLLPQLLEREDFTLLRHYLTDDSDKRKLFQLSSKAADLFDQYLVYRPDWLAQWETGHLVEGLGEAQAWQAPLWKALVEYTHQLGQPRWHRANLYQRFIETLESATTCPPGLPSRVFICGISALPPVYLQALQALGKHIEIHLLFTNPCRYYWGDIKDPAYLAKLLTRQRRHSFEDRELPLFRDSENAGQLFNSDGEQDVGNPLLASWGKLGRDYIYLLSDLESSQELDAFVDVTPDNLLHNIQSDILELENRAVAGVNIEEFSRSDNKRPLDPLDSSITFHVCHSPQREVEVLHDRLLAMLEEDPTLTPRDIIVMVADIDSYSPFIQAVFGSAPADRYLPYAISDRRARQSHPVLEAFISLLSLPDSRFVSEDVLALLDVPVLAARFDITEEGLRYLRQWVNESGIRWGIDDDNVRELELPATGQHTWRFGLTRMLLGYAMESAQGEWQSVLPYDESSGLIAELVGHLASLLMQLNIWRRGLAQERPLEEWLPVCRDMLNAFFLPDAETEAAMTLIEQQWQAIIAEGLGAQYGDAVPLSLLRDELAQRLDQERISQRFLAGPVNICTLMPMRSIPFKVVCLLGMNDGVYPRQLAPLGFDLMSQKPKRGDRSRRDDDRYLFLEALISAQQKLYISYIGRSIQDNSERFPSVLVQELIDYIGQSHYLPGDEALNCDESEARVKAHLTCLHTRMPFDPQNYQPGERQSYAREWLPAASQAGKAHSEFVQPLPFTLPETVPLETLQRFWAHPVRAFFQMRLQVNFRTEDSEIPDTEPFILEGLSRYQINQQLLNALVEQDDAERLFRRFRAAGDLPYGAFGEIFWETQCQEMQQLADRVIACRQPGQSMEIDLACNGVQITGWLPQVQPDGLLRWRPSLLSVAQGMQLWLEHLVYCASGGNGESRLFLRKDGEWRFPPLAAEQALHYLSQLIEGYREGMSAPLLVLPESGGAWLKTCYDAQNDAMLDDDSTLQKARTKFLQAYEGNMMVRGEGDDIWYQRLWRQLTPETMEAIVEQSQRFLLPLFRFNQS
Sequence of Exodeoxyribonuclease V (P08394 whole entry): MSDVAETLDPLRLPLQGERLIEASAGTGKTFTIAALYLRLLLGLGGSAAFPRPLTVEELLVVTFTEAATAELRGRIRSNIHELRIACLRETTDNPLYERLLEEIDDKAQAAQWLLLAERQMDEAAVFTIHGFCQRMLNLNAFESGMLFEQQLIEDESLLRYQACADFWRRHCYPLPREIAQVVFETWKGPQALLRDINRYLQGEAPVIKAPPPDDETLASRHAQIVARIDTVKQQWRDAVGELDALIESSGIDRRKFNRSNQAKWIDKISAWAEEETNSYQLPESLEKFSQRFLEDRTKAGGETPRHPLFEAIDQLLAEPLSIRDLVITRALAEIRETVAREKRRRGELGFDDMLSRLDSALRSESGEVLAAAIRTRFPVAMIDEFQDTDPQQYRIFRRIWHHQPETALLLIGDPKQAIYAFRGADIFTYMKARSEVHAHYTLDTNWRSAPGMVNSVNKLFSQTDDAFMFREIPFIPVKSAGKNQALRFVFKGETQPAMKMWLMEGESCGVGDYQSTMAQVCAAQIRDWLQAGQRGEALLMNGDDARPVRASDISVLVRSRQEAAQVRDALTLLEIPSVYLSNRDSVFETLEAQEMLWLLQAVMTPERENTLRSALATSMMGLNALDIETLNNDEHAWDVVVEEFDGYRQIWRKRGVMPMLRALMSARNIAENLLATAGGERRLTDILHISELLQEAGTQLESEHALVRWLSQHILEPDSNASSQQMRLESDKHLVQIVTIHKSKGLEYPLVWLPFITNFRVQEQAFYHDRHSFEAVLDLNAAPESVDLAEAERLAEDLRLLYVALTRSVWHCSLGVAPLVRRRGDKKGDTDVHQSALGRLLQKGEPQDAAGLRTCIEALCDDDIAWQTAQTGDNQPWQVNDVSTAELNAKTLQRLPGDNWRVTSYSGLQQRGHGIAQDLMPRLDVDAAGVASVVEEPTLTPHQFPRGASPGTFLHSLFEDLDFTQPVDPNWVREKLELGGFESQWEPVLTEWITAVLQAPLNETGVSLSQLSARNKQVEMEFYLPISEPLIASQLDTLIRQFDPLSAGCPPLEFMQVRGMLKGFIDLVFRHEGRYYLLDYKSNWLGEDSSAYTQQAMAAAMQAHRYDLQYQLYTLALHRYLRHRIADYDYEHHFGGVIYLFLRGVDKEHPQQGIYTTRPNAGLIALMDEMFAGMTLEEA
Sequence of G-protein coupled receptor 55 (Q9Y2T6 whole entry): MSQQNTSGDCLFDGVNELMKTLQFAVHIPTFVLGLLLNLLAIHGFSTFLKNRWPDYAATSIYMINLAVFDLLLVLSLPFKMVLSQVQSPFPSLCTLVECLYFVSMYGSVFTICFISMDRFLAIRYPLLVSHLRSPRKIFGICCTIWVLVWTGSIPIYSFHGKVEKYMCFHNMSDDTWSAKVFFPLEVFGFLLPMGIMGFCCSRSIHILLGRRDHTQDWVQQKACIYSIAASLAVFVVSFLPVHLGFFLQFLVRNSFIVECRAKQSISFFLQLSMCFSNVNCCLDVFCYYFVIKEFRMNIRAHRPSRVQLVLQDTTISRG
Sequence of Phospholipase A2 (P04054 whole entry): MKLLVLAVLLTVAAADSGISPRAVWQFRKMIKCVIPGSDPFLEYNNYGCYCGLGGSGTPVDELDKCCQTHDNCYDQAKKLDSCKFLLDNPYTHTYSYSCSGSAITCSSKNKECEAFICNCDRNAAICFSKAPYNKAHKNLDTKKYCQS
Sequence of Nonstructural protein 1 (Q194T2 whole entry): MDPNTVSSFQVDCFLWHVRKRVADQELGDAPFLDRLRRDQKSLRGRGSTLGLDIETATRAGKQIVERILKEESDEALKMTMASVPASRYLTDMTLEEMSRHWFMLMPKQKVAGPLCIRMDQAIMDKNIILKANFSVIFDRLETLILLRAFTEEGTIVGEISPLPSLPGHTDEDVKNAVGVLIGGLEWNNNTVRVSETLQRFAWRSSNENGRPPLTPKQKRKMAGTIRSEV

CC(/C=C1\SC(=S)N(CCCC(=O)Nc2ccc(C(=O)O)cc2)C1=O)=C\c1ccccc1
inactive: IC50 [8] 17.9 µM
active: IC50 [1] 1.59 µM | EC50 [2] 0.274 µM | IC50 [3] 38.9 µM | EC50 (Streptococcus) 1.04 µM | IC50 [4] 8.24 µM | IC50 [5] 34.8 µM | IC50 [6] 1.28 µM | IC50 [7] 47.1 µM | IC50 (Cysteine protease ATG4B) 6.85 µM | IC50 (Phospholipase A2) 5.33 µM

c1ccc(-c2nnc(-c3ccccn3)nc2NC2CCCCC2)cc1
active: EC50 [2] 4.44 µM | EC50 (BJ [10]) 3.21 µM | EC50 (cells [11]) 32.6 µM | EC50 [12] 18.8 µM | EC50 (BJ [14]) 4.7 µM | EC50 [17] 4.27 µM | EC50 (Streptococcus) 4.21 µM | IC50 (Nonstructural protein 1) 1.21 µM | AC50 [19] 9.45 µM | AC50 [20] 3.99 µM | EC50 (Protein RecA) 16.9 µM | AC50 (INS1) 3.94 µM
> 350 µM (not active): EC50 (cells [15])
inconclusive: EC50 [9] 0.513 µM | EC50 [13] 1.66 µM | EC50 (BJ [16]) 3.31 µM | EC50 (BJ [21]) 0.585 µM
inactive: IC50 (Exodeoxyribonuclease V) > 39.5 µM | IC50 [18] > 39.5 µM
> 50 µM (not active): EC50 (Streptokinase A)
